Assay results from PMC11024869, “The activity of antimicrobial peptoids against multidrug-resistant ocular pathogens” (Contact lens & anterior eye : the journal of the British …, 2024).
Values joined by “and” are separate entries in the source; they are usually repeats but may differ in a detail not shown here. Equal entries are not always repeated. Where two headings read alike, the source gives them in different places. Non-standard residues stand in square brackets, D forms with d. Residues, ends and D or L forms follow the SMILES beside them. Nspe(4-Br) = C[C@H](NCC(=O)O)c1ccc(Br)cc1; Nspe = C[C@H](NCC(=O)O)c1ccccc1; NDecylGly = CCCCCCCCCCNCC(=O)O; Nlys = NCCCCNCC(=O)O

How the values were obtained:
[1] = test system: human corneal epithelial cells; assay: Cytotoxicity (MTT) to corneal epithelial cells; type: cell-based
Description: Cytotoxicity to corneal epithelial cells was assessed for peptoids TM1, TM5 and TM9 using previously published methods and FDA guidelines. These peptides represent structurally diverse types (Table 2) and had different abilities to cause hemolysis of red blood cells (Fig. 1 and Table 3). Corneal cells were seeded on 96 well plate (GreinerBio One, Frickenhauser, Germany) incubated in 5 % CO2 at 37°C and grown to 80 % confluence in Dulbecco’s modified Eagle’s medium (DMEM) (Sigma-Aldrich, Irvine, UK). They were then exposed to twofold dilutions of each peptoid at concentrations ranging from 500 to 1.95 μg mL^−1 for 24 h at 37°C. An MTT (3-(4,5-dimethylthiazol-2yl)-2,5-diphenyltetrazolium bromide; Sigma-Aldrich) working solution of 0.5 mg mL^−1 was dissolved in DMEM, 100–200 μL was dispensed into each well and incubated for 4 h at 37°C. Following incubation, MTT was replaced by dimethyl sulfoxide (DMSO, Sigma Aldrich) to dissolve the formazan crystals formed by viable cells. Absorbance of this solution was measured at OD570nm. The absorbance is directly proportional to the number of viable cells. The normalized absorbance was calculated to determine number of viable cells using the following formula: %Cytotoxicity=(Absorbance of experiment well)−mean(absorbance of control well)/mean(Absorbance of positive control well)⋆100
Data are also presented as the concentration of peptoids that caused 10 % or 50 % cytotoxicity to human corneal epithelial cells.
(§1) The geometric mean is the nth root of the multiplied numbers, where n is the total number of data values. A similar formula was used to calculate the selectivity ratio, but by using the concentration of peptoid that caused 10 % hemolysis.

S. aureus strains = type: cell-based, Staphylococcus aureus; conditions: summary over five S. aureus strains in text
Source text: (§3) The S. pneumoniae strains used were SP04, SP06 and SP07 [46] and Streptococcus gallolyticus SV06 (all isolated from eyes of contact lens wearers during adverse events); P. aeruginosa PAO1 (which was originally isolated from a wound, and is an invasive strain containing the gene exoS) as well as isolates from microbial keratitis, PA 235 (invasive strain containing exoS), PA216 (a cytotoxic strain containing exoU), PA219 (cytotoxic strain containing exoU), PA 233 (cytotoxic strain containing exoU), with various susceptibilities to antibiotics were also used [14]. C. albicans ATCC 10231, a yeast, isolated from case of a human bronchomycosis, was also evaluated.
(§4) The peptoids’ minimum inhibitory and bactericidal concentrations (MIC and MBC) were determined using micro broth dilution methods as previously described with slight modifications, [26, 39, 49, 50], and without using acetic acid and bovine serum albumin [39]. Briefly, bacteria or yeast were suspended in Muller Hinton broth (MHB, Oxoid, Thermo Fisher Scientific, Thebarton, SA, Australia) at 0.1 OD660nm, which was equivalent to 1x10^8 colony forming units (CFU) mL^−1. This suspension was further diluted to achieve 5x10^6 CFU mL^−1. […] Post incubation, the number of CFUs on the agar plates was counted.

streptococci = assay: MIC micro broth dilution, summary over streptococci; type: cell-based
Source text: as §3, §4

tested bacteria = assay: Geometric mean of MIC of the tested bacteria; type: cell-based; conditions: nth root of the multiplied MICs of the tested bacteria
Source text: as §1

P aeruginosa 216 = test system: P aeruginosa 216
Description: (§2) Melimine was used as positive control as it is a cationic antimicrobial peptide that can be hydrolysed by proteases. The Expasy peptide cutter module (https://web.expasy.org/peptide_cutter/) was accessed to predict which proteases might digest melimine. The susceptibility of the antimicrobial compounds to digestion by two proteases expected to digest melimine, Proteinase K (120 unit mL^−1 in 20 mM Tris HCl, pH 7.4; New England Bio Labs, Australia) and Trypsin (10,350 BAFE units/mg in 50 mM borate buffer, pH 8.5; Thermo Scientific products, Australia), was tested. The peptoids and melimine were incubated with each protease at the ratio (w/w) of 1:100 in PBS (pH 7.4) for 24 h at 37 °C. After incubation, the peptoid/melimine + protease solutions were tested for their activity against P. aeruginosa 216 which was grown overnight in TSB at 37 °C. Bacterial cells were washed three times in PBS and then resuspended in MHB OD660nm of 0.1 (equal to 1x10^8 CFU mL^−1. The bacterial suspension was then diluted in MHB to a final working concentration of 5x10^6 cells mL^−1. The diluted bacterial suspension was subsequently added to the wells containing the peptoids/melimine + protease solution and incubated for 24 h at 37 °C. Peptoids/melimine solutions alone (no proteases) were used as a positive control, while protease solutions without the peptoids/melimine were used as a negative control. Post incubation, to inhibit the activity of the proteases, the bacterial suspensions were heated at 55 °C for 10 min in a water bath. After the heating step, the absorbance of the suspensions was measured at OD660nm.

Proteinase K = Proteinase K (Parengyodontium album, UniProt P06873)
Description: as §2

Trypsin = molecular target: T1, Trypsin (Bos taurus, UniProt P00760)
T1 sequence (P00760 24-246): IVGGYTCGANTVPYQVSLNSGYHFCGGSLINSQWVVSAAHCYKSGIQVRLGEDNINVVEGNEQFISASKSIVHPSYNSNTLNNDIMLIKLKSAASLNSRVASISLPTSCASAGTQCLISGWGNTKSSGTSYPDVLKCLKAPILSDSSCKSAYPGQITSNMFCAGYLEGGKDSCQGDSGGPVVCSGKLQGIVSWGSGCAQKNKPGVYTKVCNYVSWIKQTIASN
Description: as §2

[2] = incubated with protease at ratio (w/w) 1:100 in PBS pH 7.4, 24 h 37 °C, then P aeruginosa 216 in MHB 24 h 37 °C, OD660nm

Chain of Proteinase K (P06873 106-384): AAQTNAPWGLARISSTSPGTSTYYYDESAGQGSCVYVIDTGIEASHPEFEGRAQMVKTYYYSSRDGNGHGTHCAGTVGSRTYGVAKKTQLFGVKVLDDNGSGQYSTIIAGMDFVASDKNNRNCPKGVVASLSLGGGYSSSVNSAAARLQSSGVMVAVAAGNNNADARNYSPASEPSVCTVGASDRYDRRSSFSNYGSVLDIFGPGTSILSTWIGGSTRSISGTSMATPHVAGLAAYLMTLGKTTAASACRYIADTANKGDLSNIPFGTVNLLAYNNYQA
Source text for all strains: as §3, §4

Compound | HCE CC10 ([1]; concentration causing 10 % cytotoxicity to human corneal epithelial cells, MTT, 24 h 37°C) | HCE CC50 ([1]; concentration causing 50 % cytotoxicity to human corneal epithelial cells, MTT, 24 h 37°C) | cytotoxicity to human corneal epithelial cells relative to MIC ([1]; result in words) | SR HCE (ratio CC10 to geometric mean MIC) ([1]; selectivity ratio) | TI HCE (ratio CC50 to geometric mean MIC) ([1]; therapeutic index) | MIC among S. aureus (S. aureus strains) | MIC against other streptococci (streptococci) | Geometric mean of MIC (tested bacteria) | MIC, No protease (P aeruginosa 216; 216, 24 h) | MIC after Proteinase K (Proteinase K; pH 7.4) | MIC after Trypsin (Trypsin; pH 7.4) | MICs against all strains (all strains) | MIC, No protease (P aeruginosa 216; P aeruginosa 216 in MHB, 24 h 37 °C, OD660nm, compound alone) | MIC after Proteinase K (Proteinase K; [2]) | MIC after Trypsin (Trypsin; [2])
C[C@@H](c1ccccc1)N(CC(N)=O)C(=O)CN(C(=O)CN(CCCCN)C(=O)CN(C(=O)CN(C(=O)CN(CCCCN)C(=O)CN(C(=O)CN(C(=O)CN(CCCCN)C(=O)CN(C(=O)CN(C(=O)CNCCCCN)[C@@H](C)c1ccccc1)[C@@H](C)c1ccccc1)[C@@H](C)c1ccccc1)[C@@H](C)c1ccccc1)[C@@H](C)c1ccccc1)[C@@H](C)c1ccccc1)[C@@H](C)c1ccccc1 [TM1] (H-[Nlys][Nspe][Nspe][Nlys][Nspe][Nspe][Nlys][Nspe][Nspe][Nlys][Nspe][Nspe]-NH2) | 1 µM | 10 µM | cytotoxic to human corneal epithelial cells at or below their MICs | 0.3 | 3 | ≤ 9.4 µM | ≤ 8.6 µM |  |  |  |  |  |  |  | 
C[C@@H](c1ccc(Br)cc1)N(CC(=O)N(CCCCN)CC(=O)N(CC(=O)N(CC(=O)N(CCCCN)CC(N)=O)[C@@H](C)c1ccc(Br)cc1)[C@@H](C)c1ccc(Br)cc1)C(=O)CN(C(=O)CNCCCCN)[C@@H](C)c1ccc(Br)cc1 [TM14] (H-[Nlys][Nspe(4-Br)][Nspe(4-Br)][Nlys][Nspe(4-Br)][Nspe(4-Br)][Nlys]-NH2) |  |  |  |  |  |  |  | 4.0 µM and 4 µM | 7.8 (5.8) μg mL^−1 | 7.8 (5.8) μg mL^−1 | 7.8 (5.8) μg mL^−1 | ≤ 12.7 µM |  |  | 
CCCCCCCCCCNCC(=O)N(CCCCN)CC(=O)N(CC(=O)N(CC(=O)N(CCCCN)CC(=O)N(CC(=O)N(CC(=O)N(CCCCN)CC(N)=O)[C@@H](C)c1ccccc1)[C@@H](C)c1ccccc1)[C@@H](C)c1ccccc1)[C@@H](C)c1ccccc1 [TM18] (H-[NDecylGly][Nlys][Nspe][Nspe][Nlys][Nspe][Nspe][Nlys]-NH2) |  |  |  |  |  |  |  | 5 µM |  |  |  |  | 15 (12) μg mL^−1 | 15 (12) μg mL^−1 | 15 (12) μg mL^−1
